From US9834571B2, “Compounds for inhibiting cell proliferation in EGFR-driven cancers” (ARIAD Pharmaceuticals, Inc., priority 2012, dated 2017)
Like-named read-outs stand apart in the source and are kept apart here.

What was measured:
EGFR L858R = EGFR L858R (Homo sapiens, UniProt P00533, L858R); assay: Kinase inhibitory activity against EGFR bearing the L858R mutation; format: biochemical; conditions: 10 μM ATP, read-out: IC50 for kinase inhibition, EGFR L858R
Description: (§1) Kinase inhibitory activity of the compounds was measured against human EGFR (native sequence) and against EGFR bearing the L858R mution and the L858R/T790M double mutation (EGFR, L858R, and L858R/T790M, respectively in Table 1). Additional assays can be conducted with EGFR deletion mutants such as delE746-A750 with or without the additional T790M mutation. Assay conditions included 10 pt curves with 3 μM top concentration (singlicates) and 10 μM ATP.

EGFR L858R/T790M = EGFR L858R/T790M (Homo sapiens, UniProt P00533, L858R/T790M); assay: Kinase inhibitory activity against EGFR bearing the L858R/T790M double mutation; format: biochemical; conditions: 10 μM ATP, read-out: IC50 for kinase inhibition, EGFR L858R T790M
Chain of EGFR L858R/T790M (P00533 25-1210 T790M/L858R): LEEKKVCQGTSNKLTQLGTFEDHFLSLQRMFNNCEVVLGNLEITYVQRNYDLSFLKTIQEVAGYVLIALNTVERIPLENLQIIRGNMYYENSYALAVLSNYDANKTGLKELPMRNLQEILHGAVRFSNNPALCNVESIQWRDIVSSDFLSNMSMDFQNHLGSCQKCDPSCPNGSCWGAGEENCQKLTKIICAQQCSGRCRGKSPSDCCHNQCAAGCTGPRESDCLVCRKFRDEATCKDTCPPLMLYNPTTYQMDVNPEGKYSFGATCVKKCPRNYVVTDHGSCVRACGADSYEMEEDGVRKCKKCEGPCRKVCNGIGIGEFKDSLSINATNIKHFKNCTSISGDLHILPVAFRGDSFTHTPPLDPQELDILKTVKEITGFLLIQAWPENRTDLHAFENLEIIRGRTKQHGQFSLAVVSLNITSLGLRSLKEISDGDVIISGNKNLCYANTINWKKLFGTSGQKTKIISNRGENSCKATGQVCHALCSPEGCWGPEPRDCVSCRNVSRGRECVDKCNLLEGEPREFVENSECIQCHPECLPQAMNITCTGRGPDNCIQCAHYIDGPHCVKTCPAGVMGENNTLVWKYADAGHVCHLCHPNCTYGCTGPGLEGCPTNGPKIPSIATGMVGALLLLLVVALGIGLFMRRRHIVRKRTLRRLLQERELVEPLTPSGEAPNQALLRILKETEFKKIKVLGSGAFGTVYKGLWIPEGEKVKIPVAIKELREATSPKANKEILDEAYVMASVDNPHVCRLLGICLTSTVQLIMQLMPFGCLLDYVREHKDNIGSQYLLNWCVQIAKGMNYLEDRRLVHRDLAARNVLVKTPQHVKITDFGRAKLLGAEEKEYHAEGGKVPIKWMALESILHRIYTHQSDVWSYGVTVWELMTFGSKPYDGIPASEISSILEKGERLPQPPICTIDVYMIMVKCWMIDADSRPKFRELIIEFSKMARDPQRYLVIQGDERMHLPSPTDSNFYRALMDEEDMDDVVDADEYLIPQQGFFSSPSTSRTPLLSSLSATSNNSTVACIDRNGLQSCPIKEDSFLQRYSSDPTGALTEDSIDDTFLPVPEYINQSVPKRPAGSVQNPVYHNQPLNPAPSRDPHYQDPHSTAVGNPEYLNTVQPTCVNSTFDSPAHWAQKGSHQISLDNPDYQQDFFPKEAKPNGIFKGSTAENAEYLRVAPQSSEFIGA
Description: as §1

[1] = target: T1, BaF3 cells expressing the target EGFR mutations (Homo sapiens, UniProt P00533, T790M, cells depend on it, form not given); assay: Antiproliferative activity (MTT) against BaF3 cells expressing the target EGFR mutations; format: cell-based; conditions: BAF3 EGFR DEL T790M PURO POOL cells, read-out: IC50, BAF3 EGFR DEL T790M PURO POOL
T1 construct: IC50, BAF3 EGFR DEL T790M PURO POOL; other: BAF3 EGFR DEL T790M PURO POOL cells, MTT; other: BAF3 EGFR DEL T790M PURO POOL cells; MTT
T1 sequence (P00533 with tags, fused parts or gaps DEL746-750/T790M, form open): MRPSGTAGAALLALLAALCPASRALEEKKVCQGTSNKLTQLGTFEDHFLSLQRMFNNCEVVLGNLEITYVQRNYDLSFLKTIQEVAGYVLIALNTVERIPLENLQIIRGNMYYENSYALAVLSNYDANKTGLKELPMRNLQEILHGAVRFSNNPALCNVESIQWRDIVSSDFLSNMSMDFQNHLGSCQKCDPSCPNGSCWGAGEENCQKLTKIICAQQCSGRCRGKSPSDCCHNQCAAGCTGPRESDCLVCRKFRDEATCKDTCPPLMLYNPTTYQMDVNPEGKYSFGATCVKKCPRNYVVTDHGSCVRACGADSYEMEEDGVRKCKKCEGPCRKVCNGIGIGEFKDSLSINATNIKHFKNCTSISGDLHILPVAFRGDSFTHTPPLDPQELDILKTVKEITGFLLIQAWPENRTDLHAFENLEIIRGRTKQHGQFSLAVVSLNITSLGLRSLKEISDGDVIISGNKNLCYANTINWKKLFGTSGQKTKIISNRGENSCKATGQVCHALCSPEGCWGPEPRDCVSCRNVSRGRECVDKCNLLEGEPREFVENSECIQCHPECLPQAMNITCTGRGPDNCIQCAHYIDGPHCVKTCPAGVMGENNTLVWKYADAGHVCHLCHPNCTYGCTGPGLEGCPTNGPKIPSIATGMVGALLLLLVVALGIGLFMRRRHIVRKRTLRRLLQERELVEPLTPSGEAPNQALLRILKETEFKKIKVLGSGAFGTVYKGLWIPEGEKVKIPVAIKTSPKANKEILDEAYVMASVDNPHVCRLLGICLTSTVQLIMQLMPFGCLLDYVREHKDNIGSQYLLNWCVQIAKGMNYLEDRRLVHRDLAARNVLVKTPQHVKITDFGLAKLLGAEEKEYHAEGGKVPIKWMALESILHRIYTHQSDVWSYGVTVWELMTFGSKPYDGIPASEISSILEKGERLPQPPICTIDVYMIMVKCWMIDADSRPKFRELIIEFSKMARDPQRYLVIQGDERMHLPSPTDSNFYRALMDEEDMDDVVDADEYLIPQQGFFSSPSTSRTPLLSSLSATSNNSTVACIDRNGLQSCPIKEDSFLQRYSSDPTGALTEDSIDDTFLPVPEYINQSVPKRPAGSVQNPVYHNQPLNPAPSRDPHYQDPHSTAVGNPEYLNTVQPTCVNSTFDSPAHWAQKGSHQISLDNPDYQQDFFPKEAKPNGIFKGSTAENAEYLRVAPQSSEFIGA
Description: (§2) We also assessed the antiproliferative activity of compounds of Formula (I) against BaF3 cells expressing the target EGFR mutations or control (i.e., cell lines expressing wildtype EGFR). Assays were conducted using MTT.

[2] = target: T2, BaF3 cells expressing the target EGFR mutations (Homo sapiens, UniProt P00533, T790M/L858R, cells depend on it); assay: as above; format: cell-based; conditions: BAF3 EGFR L858R-T790M PURO POOL cells, read-out: IC50, BAF3 EGFR L858R-T790M PURO POOL
T2 construct: IC50, BAF3 EGFR L858R-T790M PURO POOL; other: BAF3 EGFR L858R-T790M PURO POOL cells, MTT; IC50, BAF3 EGFR L858R-T790M PURO POOL; other: BAF3 EGFR L858R-T790M PURO POOL cells; MTT
Description: as §2

[3] = target: human EGFR (native sequence) (Homo sapiens, UniProt P00533); assay: Kinase inhibitory activity against human EGFR (native sequence); format: biochemical; conditions: 10 μM ATP, read-out: IC50 for kinase inhibition, EGFR
Chain of human EGFR (native sequence) (P00533 25-1210): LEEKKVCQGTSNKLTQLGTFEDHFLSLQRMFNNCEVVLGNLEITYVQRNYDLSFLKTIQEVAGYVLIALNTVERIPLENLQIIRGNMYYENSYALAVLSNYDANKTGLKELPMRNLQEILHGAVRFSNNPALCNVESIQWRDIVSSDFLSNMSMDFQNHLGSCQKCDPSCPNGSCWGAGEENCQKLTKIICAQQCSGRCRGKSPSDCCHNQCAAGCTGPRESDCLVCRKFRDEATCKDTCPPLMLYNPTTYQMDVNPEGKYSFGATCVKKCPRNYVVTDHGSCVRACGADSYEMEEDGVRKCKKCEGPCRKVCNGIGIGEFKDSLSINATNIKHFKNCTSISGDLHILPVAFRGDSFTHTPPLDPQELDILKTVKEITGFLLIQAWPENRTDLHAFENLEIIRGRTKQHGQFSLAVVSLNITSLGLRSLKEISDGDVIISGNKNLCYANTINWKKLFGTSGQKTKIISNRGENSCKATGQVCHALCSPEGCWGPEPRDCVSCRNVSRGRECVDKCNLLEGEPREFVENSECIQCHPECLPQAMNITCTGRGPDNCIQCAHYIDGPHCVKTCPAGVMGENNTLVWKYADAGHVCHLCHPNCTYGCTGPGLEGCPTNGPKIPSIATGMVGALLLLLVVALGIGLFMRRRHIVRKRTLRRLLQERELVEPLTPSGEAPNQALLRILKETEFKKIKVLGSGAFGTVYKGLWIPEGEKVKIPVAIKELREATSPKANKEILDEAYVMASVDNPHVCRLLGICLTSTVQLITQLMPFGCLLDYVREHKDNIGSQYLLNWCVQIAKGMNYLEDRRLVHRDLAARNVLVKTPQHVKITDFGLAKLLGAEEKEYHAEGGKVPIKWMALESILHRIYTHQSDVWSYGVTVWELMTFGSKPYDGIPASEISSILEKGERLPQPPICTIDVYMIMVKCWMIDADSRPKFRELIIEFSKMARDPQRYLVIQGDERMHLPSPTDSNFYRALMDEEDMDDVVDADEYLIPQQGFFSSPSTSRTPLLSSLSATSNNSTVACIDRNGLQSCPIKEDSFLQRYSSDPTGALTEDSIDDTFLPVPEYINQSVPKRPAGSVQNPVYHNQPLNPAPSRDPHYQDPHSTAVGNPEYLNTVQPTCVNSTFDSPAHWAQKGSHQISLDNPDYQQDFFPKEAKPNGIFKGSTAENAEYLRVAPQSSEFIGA
Description: as §1

[4] = system: BaF3 cells expressing wildtype EGFR; assay: Antiproliferative activity (MTT) against control BaF3 cells expressing wildtype EGFR; format: cell-based; conditions: Mus musculus
Description: as §2

[5] = EGFR L858R/T790M double mutation
[6] = 10 pt curves, 3 μM top concentration

Chain of EGFR L858R (P00533 25-1210 L858R): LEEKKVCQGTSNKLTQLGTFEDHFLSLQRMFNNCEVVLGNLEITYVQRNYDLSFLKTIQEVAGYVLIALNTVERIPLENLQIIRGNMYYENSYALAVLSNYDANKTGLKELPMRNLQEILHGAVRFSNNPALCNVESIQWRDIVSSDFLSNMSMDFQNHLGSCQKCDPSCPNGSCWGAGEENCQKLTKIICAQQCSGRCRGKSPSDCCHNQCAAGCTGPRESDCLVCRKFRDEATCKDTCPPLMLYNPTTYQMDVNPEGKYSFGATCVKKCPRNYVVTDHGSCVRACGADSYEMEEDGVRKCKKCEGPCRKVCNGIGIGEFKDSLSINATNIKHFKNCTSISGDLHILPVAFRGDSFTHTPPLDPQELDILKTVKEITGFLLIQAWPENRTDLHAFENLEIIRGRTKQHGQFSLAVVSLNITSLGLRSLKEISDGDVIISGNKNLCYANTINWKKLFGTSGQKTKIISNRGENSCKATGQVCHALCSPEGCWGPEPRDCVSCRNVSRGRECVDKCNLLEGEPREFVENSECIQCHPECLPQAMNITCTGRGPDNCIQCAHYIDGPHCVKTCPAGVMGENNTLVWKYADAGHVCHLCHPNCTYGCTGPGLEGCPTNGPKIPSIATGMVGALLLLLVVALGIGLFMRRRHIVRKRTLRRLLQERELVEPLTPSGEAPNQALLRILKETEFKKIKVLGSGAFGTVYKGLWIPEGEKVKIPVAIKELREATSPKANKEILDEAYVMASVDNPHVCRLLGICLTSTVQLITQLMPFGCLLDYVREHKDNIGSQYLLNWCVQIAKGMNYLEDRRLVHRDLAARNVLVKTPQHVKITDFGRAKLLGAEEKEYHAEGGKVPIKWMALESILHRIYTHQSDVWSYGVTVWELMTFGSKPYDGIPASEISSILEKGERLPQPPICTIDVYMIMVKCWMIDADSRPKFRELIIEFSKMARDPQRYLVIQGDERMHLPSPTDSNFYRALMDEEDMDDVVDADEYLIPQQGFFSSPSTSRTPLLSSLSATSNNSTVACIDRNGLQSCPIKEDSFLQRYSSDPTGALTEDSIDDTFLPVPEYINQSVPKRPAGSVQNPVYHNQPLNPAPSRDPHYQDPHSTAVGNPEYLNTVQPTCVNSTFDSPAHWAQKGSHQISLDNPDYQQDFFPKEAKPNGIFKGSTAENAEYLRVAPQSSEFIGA

IC50 (EGFR L858R; EGFR L858R)	IC50 (EGFR L858R/T790M; [5])	GI50 [1]	GI50 [2]	IC50 ([3]; human EGFR native sequence)	IC50 (EGFR L858R; [6])	IC50 (EGFR L858R/T790M; [6])	IC50 [3, 6]	SMILES	IC50 ([4]; BAF3 PARENTAL cells (control))	IC50 ([4]; BAF3 parental cells)
< 0.05 µM	< 0.05 µM	< 0.05 µM	0.05 to 0.1 µM	< 0.05 µM				C=CC(=O)Nc1ccc(OC)c(Nc2ncc(Cl)c(Nc3ccc(OC4CCOC4)cc3P(C)(C)=O)n2)c1 (stereo not drawn) [Example 99, N-(3-((5-chloro-4-((2-(dimethylphosphoryl)-4-((tetrahydrofuran-3-yl)oxy)phenyl)amino)pyrimidin-2-yl)amino)-4-methoxyphenyl)acrylamide]	≥ 0.25 µM	
		< 0.05 µM	< 0.05 µM		< 0.05 µM	< 0.05 µM	< 0.05 µM	C=CC(=O)Nc1ccc(OC)c(Nc2ncc(Cl)c(Nc3ccc(OCCN(C)C)cc3P(C)(C)=O)n2)c1 [Example 125, N-(3-((5-chloro-4-((4-(2-(dimethylamino)ethoxy)-2-(dimethylphosphoryl)phenyl)amino)pyrimidin-2-yl)amino)-4-methoxyphenyl)acrylamide]		≥ 0.25 µM
< 0.05 µM	< 0.05 µM	< 0.05 µM	< 0.05 µM	< 0.05 µM				C=CC(=O)Nc1cc(Nc2ncc(Cl)c(Nc3ccc(OCCN4CCCC4)cc3P(C)(C)=O)n2)c(OC)cc1F [Example 98, N-(5-((5-chloro-4-((2-(dimethylphosphoryl)-4-(2-(pyrrolidin-1-yl)ethoxy)phenyl)amino)pyrimidin-2-yl)amino)-2-fluoro-4-methoxyphenyl)acrylamide]	≥ 0.25 µM	
		0.101 to 0.25 µM	0.101 to 0.25 µM		< 0.05 µM	< 0.05 µM	< 0.05 µM	COc1cc(N2CCCC2)c(NC(=O)C#CCCN2CCN(C)CC2)cc1Nc1ncc(Cl)c(Nc2ccccc2P(C)(C)=O)n1 [Example 119, N-(5-((5-chloro-4-((2-(dimethylphosphoryl)phenyl)amino)pyrimidin-2-yl)amino)-4-methoxy-2-(pyrrolidin-1-yl)phenyl)-5-(4-methylpiperazin-1-yl)pent-2-ynamide]		≥ 0.25 µM
< 0.05 µM	< 0.05 µM	< 0.05 µM	< 0.05 µM	< 0.05 µM				COc1cc(F)c(NC(=O)/C=C/Cl)cc1Nc1ncc(Cl)c(Nc2ccccc2P(C)(C)=O)n1 [Example 85, (E)-3-chloro-N-(5-((5-chloro-4-((2-(dimethylphosphoryl)phenyl)amino)pyrimidin-2-yl)amino)-2-fluoro-4-methoxyphenyl)acrylamide]	≥ 0.25 µM	
< 0.05 µM	< 0.05 µM	< 0.05 µM	< 0.05 µM	< 0.05 µM				COc1ccc(NC(=O)/C=C/CN2CCCCC2)cc1Nc1ncc(Cl)c(Nc2ccccc2P(C)(C)=O)n1 [Example 92, (E)—N-(3-((5-chloro-4-((2-(dimethylphosphoryl)phenyl)amino)pyrimidin-2-yl)amino)-4-methoxyphenyl)-4-(piperidin-1-yl)but-2-enamide]	≥ 0.25 µM	
		< 0.05 µM	< 0.05 µM		< 0.05 µM	< 0.05 µM	< 0.05 µM	C=CC(=O)Nc1cc(Nc2ncc(Cl)c(Nc3ccccc3P(C)(C)=O)n2)c(OC)cc1C#CCNC [Example 160, N-(5-((5-chloro-4-((2-(dimethylphosphoryl)phenyl)amino)pyrimidin-2-yl)amino)-4-methoxy-2-(3-(methylamino)prop-1-yn-1-yl)phenyl)acrylamide]		≥ 0.25 µM
< 0.05 µM	0.05 to 0.1 µM	< 0.05 µM	0.05 to 0.1 µM	≥ 0.25 µM				C=C(F)C(=O)Nc1ccc(OC)c(Nc2ncc(Cl)c(Nc3ccccc3P(C)(C)=O)n2)c1 [Example 77, N-(3-((5-chloro-4-((2-(dimethylphosphoryl)phenyl)amino)pyrimidin-2-yl)amino)-4-methoxyphenyl)-2-fluoroacrylamide]	≥ 0.25 µM	
< 0.05 µM	< 0.05 µM	≥ 0.25 µM	≥ 0.25 µM	< 0.05 µM				C=CC(=O)Nc1cc(Nc2ncc(Cl)c(Nc3ccccc3P(C)(C)=O)n2)c(OC)cc1N1CCC(N)C1 (stereo not drawn) [Example 57, N-(2-(3-aminopyrrolidin-1-yl)-5-((5-chloro-4-((2-(dimethylphosphoryl)phenyl)amino)pyrimidin-2-yl)amino)-4-methoxyphenyl)acrylamide]	≥ 0.25 µM	
		< 0.05 µM	< 0.05 µM		< 0.05 µM	< 0.05 µM	0.101 to 0.25 µM	C=C(C)C(=O)Nc1cc(Nc2ncc(Cl)c(Nc3ccccc3P(C)(C)=O)n2)c(OC)cc1N1CC[C@@H](N(C)C)C1 (racemic) [Example 113, rac-(R)-N-(5-((5-chloro-4-((2-(dimethylphosphoryl)phenyl)amino)pyrimidin-2-yl)amino)-2-(3-(dimethylamino)pyrrolidin-1-yl)-4-methoxyphenyl)methacrylamide]		≥ 0.25 µM
		< 0.05 µM	< 0.05 µM		< 0.05 µM	< 0.05 µM	< 0.05 µM	C=CC(=O)Nc1cc(Nc2ncc(Cl)c(Nc3ccccc3P(C)(C)=O)n2)c(OC)cc1OC(COC)CN(C)C (stereo not drawn) [Example 130, N-(5-((5-chloro-4-((2-(dimethylphosphoryl)phenyl)amino)pyrimidin-2-yl)amino)-2-((1-(dimethylamino)-3-methoxypropan-2-yl)oxy)-4-methoxyphenyl)acrylamide]		≥ 0.25 µM
< 0.05 µM	< 0.05 µM	≥ 0.25 µM	≥ 0.25 µM	0.101 to 0.25 µM				C=CC(=O)Nc1cc(Nc2ncc(Cl)c(Nc3ccccc3P(C)(C)=O)n2)c(OC)cc1C(=O)N1CCN(C)CC1 [Example 56, N-(5-((5-chloro-4-((2-(dimethylphosphoryl)phenyl)amino)pyrimidin-2-yl)amino)-4-methoxy-2-(4-methylpiperazine-1-carbonyl)phenyl)acrylamide]	≥ 0.25 µM	
< 0.05 µM	< 0.05 µM	< 0.05 µM	< 0.05 µM	< 0.05 µM				C=CC(=O)Nc1cc(Nc2ncc(Cl)c(Nc3ccccc3P(C)(C)=O)n2)c(OC)cc1N1CCC(N2CCOCC2)C1 (stereo not drawn) [Example 28, N-(5-((5-chloro-4-((2-(dimethylphosphoryl)phenyl)amino)pyrimidin-2-yl)amino)-4-methoxy-2-(3-morpholinopyrrolidin-1-yl)phenyl)acrylamide]	≥ 0.25 µM	
		< 0.05 µM	< 0.05 µM		< 0.05 µM	< 0.05 µM	< 0.05 µM	COc1cc(F)c(NC(=O)CCl)cc1Nc1ncc(Cl)c(Nc2ccccc2P(C)(C)=O)n1 [Example 149, 2-chloro-N-(5-((5-chloro-4-((2-(dimethylphosphoryl)phenyl)amino)pyrimidin-2-yl)amino)-2-fluoro-4-methoxyphenyl)acetamide]		≥ 0.25 µM
< 0.05 µM	< 0.05 µM	0.05 to 0.1 µM	0.101 to 0.25 µM	< 0.05 µM				C=CC(=O)Nc1cc(Nc2ncc(Cl)c(Nc3ccccc3P(C)(C)=O)n2)c(OC)cc1N1CCC(O)C1 (stereo not drawn) [Example 32, N-(5-((5-chloro-4-((2-(dimethylphosphoryl)phenyl)amino)pyrimidin-2-yl)amino)-2-(3-hydroxypyrrolidin-1-yl)-4-methoxyphenyl)acrylamide]	≥ 0.25 µM	
